Holding throughout (assay type): cell-based
One experiment has as its target T1, HER2 (Homo sapiens, UniProt P04626).
T1 construct: the human mammary carcinoma line BT474 (ATCC HTB2) expressing HER2; endogenous in cells; host or cells: BT474 human mammary carcinoma cells
The experiment in a line: HER2-BT474 whole cell kinase ELISA. The method, then:
HER2-BT474 assays measuring whole cell HER2 activity was carried out as described below:
All the following steps are at room temperature and aseptically, unless stated otherwise. All ELISA plate washing is by rinsing with distilled water three times and once with TBST.
Incubate the cells in 5% CO2 at 37° C. overnight.
2. ELISA Plate Coating and Blocking
Background: In an ELISA, binding on a coated surface is turned into a signal by an enzyme label.

Another experiment relates to A431 cells. As to the kind of experiment: A431 growth assay (sulphorhodamine B). The note with it: Homo sapiens, A-431, 96 h; Table V; 4 days, SRB; read-out: Estimated IC50 Growth Assays A431 cells. An excerpt: (§1) This example illustrates the ability of the exemplary compounds to inhibit receptor tyrosine kinases, such as HER2 and/or EGFR. The following target cells were used for cellular kinaseassays: NIH3T3 clone C7 (Honegger et al., supra) engineered to over-express human EGF receptor; NIH3T3 cells engineered to over-express a chimeric receptor containing the EGFR extracellular domain and the HER2 intracellular kinase domain; the human mammary carcinoma line BT474 (ATCC HTB2) expressing HER2; and the human glioblastoma line U1242 that expresses PDGFR-β. Growth assays were carried out using human mammary epithelial SKBR3 (ATCC HTB30) cells, SKOV3 (ATCC HTB77) human ovarian cancer cell line, A431 cells, MCF7 human breast carcinoma cells, MCF7 cells overexpress the HER2 kinase (MCF7-HER2), NIH3T3 cells, and NIH3T3 cells overexpressing the HER2 kinase (3T3-HER2).
SKBR3 cells over-express HER2. A431 cells over-express EGFR. These cells were dispensed into 96-well plates with test compounds. After 4 days the monolayers were TCA-fixed then stained with sulphorhodamine B. The absorbance versus log drug concentration was plotted and IC50 values estimated.
(4) Tris, crystallized free base—Fisher Catalog #BP152 Working solution: 10 mM tris=1.211 gram Trizma base/liter H2O. […]
(11) Read optical density at dual wavelength mode 570 nm and 630 nm on Dynatech ELISA plate reader, Model MR 5000.

A further experiment addresses T2, human EGF receptor (Homo sapiens, UniProt P00533).
T2 construct: expressed in transfected cells; host or cells: NIH3T3 clone C7 (EGFR/C7; mouse fibroblasts)
The experiment in a line: EGF-receptor whole cell kinase assay (EGFR-3T3). The method, then:
as §1, with “The” for “This example illustrates the ability of the exemplary compounds to inhibit receptor tyrosine kinases, such as HER2 and/or EGFR. The”
Unless otherwise stated the effect of various compounds on receptor tyrosine kinases were assayed as described in this section.
1. EGF-receptor Whole Cell Kinase Assay
EGFR kinase activity (EGFR-3T3 assay) in whole cells was measured as described below:
The following protocol was used:
A. Coat ELISA plates (Corning, 96 well, Cat. #25805-96) with 05-101 antibody at 0.5 μg per well in PBS, 150 μl final volume/well, and store overnight at 4° C. Coated plates are good for up to 10 days when stored at 4° C.
B. On day of use, remove coating buffer and replace with blocking buffer (5% Carnation Instant Non-Fat Dry Milk in PBS). Incubate the plate, shaking, at room temperature (about 23° C. to 25° C.) for 30 minutes. Just prior to use, remove blocking buffer and wash plate 4 times with TBST buffer.
A. EGFR/C7 cell line (Honegger, et al., Cell 51:199-209, 1987) can be use for this assay.
B. Choose dishes having 80-90% confluence for the experiment. Trypsinize cells and stop reaction by adding 10% CS DMEM medium. Suspend cells in DMEM medium (10% CS DMEM medium) and centrifuge once at 1000 rpm, and once at room temperature for 5 minutes.
C. Resuspend cells in seeding medium (DMEM, 0.5% bovine serum), and count the cells using trypan blue. Viability above 90% is acceptable. Seed cells in DMEM medium (0.5% bovine serum) at a density of 10,000 cells per well, 100 μl per well, in a 96 well microtiter plate. Incubate seeded cells in 5% CO2 at 37° C. for about 40 hours.
A. Check seeded cells for contamination using an inverted microscope. Dilute drug stock (10 mg/ml in DMSO) 1:10 in DMEM medium, then transfer 5 μl to a test well for a final drug dilution of 1:200 and a final DMSO concentration of […]. Control wells receive DMSO alone. Incubate in 5% CO2 at 37° C. for one hour.
B. Prepare EGF ligand: dilute stock EGF in DMEM so that upon transfer of 10 μl dilute EGF (1:12 dilution), 25 nM final concentration is attained.
C. Prepare fresh HNTG* sufficient for 100 μl per well; and place on ice.
D. After two hours incubation with drug, add prepared EGF ligand to cells, 10 μl per well, to yield a final concentration of 25 nM. Control wells receive DMEM alone. Incubate, shaking, at room temperature, for 5 minutes.
E. Remove drug, EGF, and DMEM. Wash cells twice with PBS. Transfer HNTG* to cells, 100 μl per well. Place on ice for 5 minutes. Meanwhile, remove blocking buffer from other ELISA plate and wash with TBST as described above.
F. With a pipette tip securely fitted to a micropipettor, scrape cells from plate and homogenize cell material by repeatedly aspirating and dispensing the HNTG* lysis buffer. Transfer lysate to a coated, blocked, and washed ELISA plate. Incubate shaking at room temperature for one hour.
G. Remove lysate and wash 4 times with TBST. Transfer freshly diluted anti-Ptyr antibody to ELISA plate at 100 μl per well. Incubate shaking at room temperature for 30 minutes in the presence of the anti-Ptyr antiserum (1:3000 dilution in TBST).
H. Remove the anti-Ptyr antibody and wash 4 times with TBST. Transfer the freshly diluted TAGO anti-rabbit IgG antibody to the ELISA plate at 100 μl per well.

This passage reports IC50 results from patent US6596878B2, “Methods and compositions for inhibiting cell proliferative disorders” (Yissum Research & Development Company of the Hebrew …, priority 1994, dated 2003).

The structures appear in SMILES notation. Read-outs that look alike come from different tables or passages of the source. Bounds are passed on as bounds.

T1 sequence (P04626 23-1255): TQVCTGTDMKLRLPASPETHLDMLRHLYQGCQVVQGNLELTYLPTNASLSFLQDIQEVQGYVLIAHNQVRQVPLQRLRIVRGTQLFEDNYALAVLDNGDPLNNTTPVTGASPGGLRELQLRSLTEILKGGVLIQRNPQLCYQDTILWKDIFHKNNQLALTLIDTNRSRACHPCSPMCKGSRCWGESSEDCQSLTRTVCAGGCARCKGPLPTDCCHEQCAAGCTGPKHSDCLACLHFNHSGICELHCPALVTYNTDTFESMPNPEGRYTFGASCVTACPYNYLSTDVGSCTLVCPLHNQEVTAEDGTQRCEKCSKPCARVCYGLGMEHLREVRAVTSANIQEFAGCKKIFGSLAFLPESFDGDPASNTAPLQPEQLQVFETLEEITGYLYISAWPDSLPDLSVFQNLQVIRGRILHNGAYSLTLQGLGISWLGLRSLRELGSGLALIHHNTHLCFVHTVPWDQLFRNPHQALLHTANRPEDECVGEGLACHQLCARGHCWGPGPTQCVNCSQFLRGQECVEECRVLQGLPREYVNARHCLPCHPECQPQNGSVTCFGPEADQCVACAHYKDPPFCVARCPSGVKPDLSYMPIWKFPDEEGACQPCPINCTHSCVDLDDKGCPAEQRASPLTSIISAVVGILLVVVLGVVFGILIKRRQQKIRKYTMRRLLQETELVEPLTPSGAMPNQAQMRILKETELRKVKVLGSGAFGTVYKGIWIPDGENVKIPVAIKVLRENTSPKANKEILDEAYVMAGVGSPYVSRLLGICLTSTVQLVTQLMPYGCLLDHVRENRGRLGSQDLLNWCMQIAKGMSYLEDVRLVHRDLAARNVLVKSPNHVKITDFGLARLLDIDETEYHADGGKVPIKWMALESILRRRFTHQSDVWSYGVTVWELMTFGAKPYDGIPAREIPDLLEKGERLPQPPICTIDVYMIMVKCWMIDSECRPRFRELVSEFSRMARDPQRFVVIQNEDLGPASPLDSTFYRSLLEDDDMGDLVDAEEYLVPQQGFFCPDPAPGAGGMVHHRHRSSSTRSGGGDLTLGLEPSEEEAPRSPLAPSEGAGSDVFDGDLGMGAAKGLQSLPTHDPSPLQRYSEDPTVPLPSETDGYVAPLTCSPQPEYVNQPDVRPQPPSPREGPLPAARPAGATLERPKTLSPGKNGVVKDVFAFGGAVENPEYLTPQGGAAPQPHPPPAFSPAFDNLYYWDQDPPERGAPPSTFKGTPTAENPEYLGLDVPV
T2 sequence (P00533 25-1210): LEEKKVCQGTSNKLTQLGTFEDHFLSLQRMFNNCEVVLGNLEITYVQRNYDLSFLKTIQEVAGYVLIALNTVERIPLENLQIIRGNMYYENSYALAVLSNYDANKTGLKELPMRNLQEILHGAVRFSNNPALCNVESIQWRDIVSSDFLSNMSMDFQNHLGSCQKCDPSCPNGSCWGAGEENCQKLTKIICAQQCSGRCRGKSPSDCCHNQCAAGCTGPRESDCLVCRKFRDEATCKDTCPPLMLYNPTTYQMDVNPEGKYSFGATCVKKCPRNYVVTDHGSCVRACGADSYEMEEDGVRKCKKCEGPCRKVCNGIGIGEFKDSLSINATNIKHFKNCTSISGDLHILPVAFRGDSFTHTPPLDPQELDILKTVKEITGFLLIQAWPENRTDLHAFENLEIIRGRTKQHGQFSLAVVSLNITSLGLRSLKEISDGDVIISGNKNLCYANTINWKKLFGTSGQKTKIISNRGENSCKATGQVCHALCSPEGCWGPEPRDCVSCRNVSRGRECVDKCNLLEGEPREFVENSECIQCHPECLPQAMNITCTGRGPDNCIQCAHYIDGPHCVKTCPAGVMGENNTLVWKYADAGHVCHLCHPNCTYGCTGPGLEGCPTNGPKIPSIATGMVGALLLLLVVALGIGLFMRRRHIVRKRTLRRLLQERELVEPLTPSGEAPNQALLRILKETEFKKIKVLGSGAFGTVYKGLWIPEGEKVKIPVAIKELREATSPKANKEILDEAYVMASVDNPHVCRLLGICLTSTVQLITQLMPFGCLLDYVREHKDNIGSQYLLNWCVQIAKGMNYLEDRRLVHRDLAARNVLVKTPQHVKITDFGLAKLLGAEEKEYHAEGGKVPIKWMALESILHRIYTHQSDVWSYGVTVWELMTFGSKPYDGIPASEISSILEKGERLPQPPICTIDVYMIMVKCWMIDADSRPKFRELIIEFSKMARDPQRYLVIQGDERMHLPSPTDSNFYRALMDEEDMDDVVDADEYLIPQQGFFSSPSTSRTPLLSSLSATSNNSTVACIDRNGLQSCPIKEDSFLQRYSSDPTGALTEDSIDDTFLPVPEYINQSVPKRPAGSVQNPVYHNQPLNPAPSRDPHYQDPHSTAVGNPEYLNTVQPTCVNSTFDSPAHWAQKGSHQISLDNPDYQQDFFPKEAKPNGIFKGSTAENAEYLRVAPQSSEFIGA

As for `Cc1ccc2ncnc(Nc3cccc(Cl)c3)c2c1` [Compound P12a], the IC50 on HER2 (Table III, cellular kinase assay, class symbol, read-out: HER2) was < 50 µM; on HER2 (Table V, read-out: Estimated IC50 Cellular Kinase Assays HER2 (BT474)), 7.14 µM; with A431 cells, 10 µM; at human EGF receptor (Table III, cellular kinase assay, class symbol, read-out: EGFR), < 50 µM; on human EGF receptor (Table V, read-out: Estimated IC50 Cellular Kinase Assays EGFR (EGF-3T3)) it was 0.04 µM.
